How the values were obtained:
Type in all cases: in vivo, rat
[1] = test system: IL-6, IL-1β, TNF-α and TGF-β1; assay: CFA arthritis rats, paw cytokine levels (ELISA); details: D24; for left paw IL-1β level / left paw IL-6 level / left paw TGF-β1 level / left paw TNF-α level / right paw IL-1β level / right paw IL-6 level / right paw TGF-β1 level / right paw TNF-α level: arthritic rats, E3 1 mg/kg or 911 10 mg/kg i.v. D14+D19, indomethacin 3 mg/kg p.o.
Description: On Day 24 (5 days after the last i.v. bolus injection or 24 hours after the last p.o. administration) (after X-rays radiographies), each animal hindpaw (arthritic and non arthritic rats) was weighed and was collected in a labelled polyethylene vial. Tissue samples were frozen in liquid nitrogen and stored at −80° C.
Preparation of Joint Homogenates: Frozen Hind Paws were Pulverized Using a Bio-Pulverizer. The powdered hind paws were then placed into a 50 ml conical centrifuge tube containing 3 ml PBS supplemented with 50 μl of anti-protease cocktail and homogenized on ice using Ultra-Turrax homogenizer (50% of the maximal speed). Homogenates were then centrifuged at 2000×g for 15 minutes at 4° C. and supernatants were filtered through 0.2 μm Sartorius filters, aliquoted and stored at −80° C. until use.
Cytokine levels measurement: Cytokine levels of TNF-α (Rat TNF-a ELISA kit, ref. RTA00, Batch 213718, R&D Systems, France), IL-1 Rat […] ELISA kit, ref. RLB00, Batch 212435, R&D Systems, France), IL-6 Rat IL-6 ELISA kit, ref. R6000, Batch 211773, 214008 and 214362, R&D Systems, France), and TGF-β1 Human TGF-β1 ELISA kit, ref. DB100, Batch 212258 and 213610, R&D Systems, France) were determined in duplicate, according to the manufacturer's procedure. Aliquots of hind paw homogenates were stored at −80° C.
All results were reported as Mean ±S.E.M. of 10 rats in each group at each time point. Paw volume was expressed in ml calculated from the mean value of the right and left paw volume. Arthritis index was calculated from the sum of the score obtained for each of the 4 paws. The nociceptive response was evaluated by the intensity of the level of vocalization recorded for each animal (mean of 4 values: 2 times/paw) in mV. The percentage inhibition of the nociceptive response was calculated from the mean value of the vehicle-treated arthritic group [(mean value of vehicle-treated arthritic group−mean value of treated arthritic group/mean value of vehicle-treated arthritic group)*100]. Body weight was expressed in grams. Hindpaws (left and right) weight was expressed in grams. Cytokine levels (IL-6, IL-1β, TNF-α and TGF-β1) of each hind paw was expressed in pg/ml. Circulating levels of TGF-β1 was expressed in pg/ml. Radiological index for each parameter (demineralization, erosions, periostal reaction, soft tissue damage, space joint, osteogenesis deformity) and total radiological index (total score) were calculated from the sum of the scores obtained for each parameter. The inter-group significances of the deviations between the values of vehicle-treated group (arthritic rats) and vehicle-treated group (non arthritic rats) were assessed by the Student t test or Mann-Whitney Rank Sum Test when equal variance or normality test failed. The inter-group significances of the deviations between the values of vehicle-treated group (arthritic rats) and E3- and 911- and Indomethacin-treated groups were assessed by the 1-way analysis of variance ANOVA followed by the non-paired Dunnett t test. A probability of P<0.05 was considered as significant. All statistical analysis was performed by the Sigmastat™ software.

TGF-β1 = assay: CFA arthritis rats, circulating TGF-β1 in serum (ELISA); details: D24; for serum TGF-β1 level: arthritic rats, E3 1 mg/kg or 911 10 mg/kg i.v. D14+D19, indomethacin 3 mg/kg p.o.
Description: (§1) On Day 24 (after paw volume and arthritis index measurements and test vocalization), under general anaesthesia using isoflurane (in a mixture of oxygen and nitrous oxide), the blood samples (about 800-1000 μl) was collected by capillary action with a micropipette from retroorbital sinus.
Measurement of circulating TGF-β1 (groups 1-2-3-4-5): A part of blood sample was collected in micro tubes for serum preparation at ambient temperature. Following sample collection, blood was mixed and allowed to clot for 30 minutes prior to the centrifugation. The tubes were centrifuged at about 6000 g for 3 minutes. Each serum sample (at least 100 μL, except for rat #52 and #53) was aliquoted and stored at −20° C. until sample activation for TGF-β1 analysis. These aliquots (50 vials) were kept for a period of 6 months starting from the end of the study. […] TGF-β1 levels were measured using human TGF-β1 ELISA kit (ref. DB100, Batch 212258 and 213610, R&D Systems—France).
All results were reported as Mean ±S.E.M. of 10 rats in each group at each time point. Paw volume was expressed in ml calculated from the mean value of the right and left paw volume. Arthritis index was calculated from the sum of the score obtained for each of the 4 paws. The nociceptive response was evaluated by the intensity of the level of vocalization recorded for each animal (mean of 4 values: 2 times/paw) in mV. The percentage inhibition of the nociceptive response was calculated from the mean value of the vehicle-treated arthritic group [(mean value of vehicle-treated arthritic group−mean value of treated arthritic group/mean value of vehicle-treated arthritic group)*100]. […] Radiological index for each parameter (demineralization, erosions, periostal reaction, soft tissue damage, space joint, osteogenesis deformity) and total radiological index (total score) were calculated from the sum of the scores obtained for each parameter. […]

[2] = CFA arthritis rats, hematological parameters; details: for effect on blood parameters compared to vehicle-treated arthritic group: E3 1 mg/kg or 911 10 mg/kg i.v. D14+D19, indomethacin 3 mg/kg/day p.o. 10 days; for Hematocrit / Hemoglobin / Platelets / Red blood cells / White blood cells: arthritic rats, E3 1 mg/kg or 911 10 mg/kg i.v. D14+D19, indomethacin 3 mg/kg p.o. over 10 days, D24
Description: as §1
Blood collection for hematological parameters (groups 1-2-3-4-5: 50 vials): A part of blood sample was collected in tubes containing K3—EDTA (at least 100 μL). The determination of parameters were performed on the day of the collection and the samples were not stored. The hematological parameters including red blood cells, white blood cells, platelets, hemoglobin, hematocrit were measured with a hematology cell counter (D 24). Some hematological parameters were not measured due to the clotted samples (vehicle-freated non arthritic rat: #10; E3-treated arthritic rats: #59, #67; 911-treated arthritic rats: #16).

[3] = indomethacin 3 mg/kg/day p.o. 10 days

Q: Which results are given for `COc1ccc2c(c1)c(CC(=O)O)c(C)n2C(=O)c1ccc(Cl)cc1` [Indomethacin, reference compound]?
A: left paw IL-1β level [1]: 4029.1 ± 449.9 pg/mL; left paw IL-6 level [1]: 249.7 ± 60.4 pg/mL; left paw TGF-β1 level [1]: 7708.2 ± 293.9 pg/mL; left paw TNF-α level [1]: 29.9 ± 3.6 pg/mL; right paw IL-1β level [1]: 3884.4 ± 534.4 pg/mL; right paw IL-6 level [1]: 295.9 ± 47.8 pg/mL; right paw TGF-β1 level [1]: 7057.4 ± 335.6 pg/mL; right paw TNF-α level [1]: 30.6 ± 5.7 pg/mL; decrease of TGF-β1 level in right paw compared to vehicle-treated arthritic group [1, 3]: about 1.3 times; serum TGF-β1 level (TGF-β1): 57222.2 ± 3194.1 pg/mL; decrease of serum TGF-β1 level compared to vehicle-treated arthritic group (TGF-β1; [3]): about 1.5 times; effect on blood parameters compared to vehicle-treated arthritic group [2]: did not affect the blood parameters; Hematocrit [2]: 35.0 ± 1.5%; Hemoglobin [2]: 11.8 ± 0.6 g/dL; Platelets [2]: 705 ± 111 10^3/mm^3; Red blood cells [2]: 6.93 ± 0.31 10^6/mm^3; White blood cells [2]: 21.7 ± 2.5 10^3/mm^3

B1: E3: humanized, affinity matured anti-NGF antagonist antibody; variable regions SEQ ID NO:1 and 2; human IgG2a (A330P331 to S330S331), kappa (antibody, V domains shown)
VH: QVQLQESGPGLVKPSETLSLTCTVSGFSLIGYDLNWIRQPPGKGLEWIGIIWGDGTTDYNSAVKSRVTISKDTSKNQFSLKLSSVTAADTAVYYCARGGYWYATSYYFDYWGQGTLVTVS
VL: DIQMTQSPSSLSASVGDRVTITCRASQSISNNLNWYQQKPGKAPKLLIYYTSRFHSGVPSRFSGSGSGTDFTFTISSLQPEDIATYYCQQEHTLPYTFGQGTKLEIKRT
modifications: human IgG2a constant (A330S/P331S) and kappa constant missing
Q: Which results are given for B1?
A: effect on IL-6, IL-1β, TNF-α or TGF-β1 levels in both paws vs vehicle-treated arthritic group ([1]; 1 mg/kg i.v. on D14 and D19): did not affect; left paw IL-1β level [1]: 5060.0 ± 473.5 pg/mL; left paw IL-6 level [1]: 234.4 ± 35.2 pg/mL; left paw TGF-β1 level [1]: 9796.7 ± 491.2 pg/mL; left paw TNF-α level [1]: 23.6 ± 2.5 pg/mL; right paw IL-1β level [1]: 4853.5 ± 605.0 pg/mL; right paw IL-6 level [1]: 214.6 ± 47.2 pg/mL; right paw TGF-β1 level [1]: 9362.7 ± 423.4 pg/mL; right paw TNF-α level [1]: 21.5 ± 2.5 pg/mL; serum TGF-β1 level (TGF-β1): 69408.8 ± 3926.7 pg/mL; effect on blood parameters compared to vehicle-treated arthritic group [2]: did not affect the blood parameters; Hematocrit [2]: 38.5 ± 1.0%; Hemoglobin [2]: 12.9 ± 0.3 g/dL; Platelets [2]: 827 ± 77 10^3/mm^3; Red blood cells [2]: 7.74 ± 0.17 10^6/mm^3; White blood cells [2]: 19.1 ± 1.2 10^3/mm^3
